The values that follow come from patent US7655799B2, “2{[2-(substituted amino)ethyl]sulfonyl}ethyl N,N,N',N'-tetrakis(2-chloroethyl)phosphorodiamidates” (Telik, Inc., priority 2006, dated 2010).

One may read the IC50 as the concentration that inhibits the measured activity by half. By solubility is commonly meant how much of the substance goes into solution per volume.

Each structure is given as a SMILES string.

Data set [1] is described as follows: Solubility in water of salts. The conditions noted are these: for solubility: water, solubility in water.
For data set [2], the system named is MIA PaCa-2 (pancreatic carcinoma). Kind of data set: Cytotoxicity/Growth Inhibition Assay (CellTiter-Glo), MIA PaCa-2. In kind it is cell-based. The conditions noted are these: Homo sapiens, MIA PaCa-2, 72 h; hydrochloride salts; 3 days culture. On the procedure: (§1) The human cancer cell lines DLD-1 (colorectal adenocarcinoma), LNCaP (prostate carcinoma), and MIA PaCa-2 (pancreatic carcinoma) were obtained from the American Type Culture Collection, Manassas, Va., U.S.A., and MX-1 (breast carcinoma) from the National Cancer Institute, Bethesda, Md., U.S.A. The CellTiter-Glo assay kit was obtained from Promega Corporation, Madison, Wis., U.S.A. All products were used in accordance with manufacturer's directions. All assays were conducted in triplicate wells, with dimethyl sulfoxide (DMSO) solvent control. The extent of cell growth was expressed as a percentage of the signal from the solvent control wells.
(§2) Log-phase cells were trypsinized, collected by centrifugation, and resuspended in a small volume of fresh medium, and the density of viable cells was determined following Trypan Blue staining. Cells were diluted in fresh media (3×10^3 cells/mL for DLD-1, MIA PaCa-2, and MX-1, and 6×10^3 cells/mL for LNCaP), and added at 150 μL/well to 96-well plates, and incubated for several hours to allow attachment in the case of adherent cells. Compounds 1A to 5A, as their hydrochloride salts, dissolved in DMSO, was diluted 50-fold with fresh medium and the diluted solutions immediately added at 50 μL/well to the cell suspensions, giving final compound concentrations between 0.1 μM and 200 μM and a final DMSO concentration of 0.5%. The cells were cultured for approximately three doubling times (3 days for MIA PaCa-2 and MX-1, and 4 days for DLD-1 and LNCaP). The cells were then collected by centrifugation, and 100 μL of the culture supernatant was replaced by the CellTiter-Glo reagent. After incubation for 10 minutes at room temperature, and the plate was read with a luminometer. A number of compounds of formula A were tested in this assay and found to be active.
For orientation: In ATP-based viability assays light output follows the ATP content of the culture.

The subject of data set [3] is LNCaP (prostate carcinoma). In words: Cytotoxicity/Growth Inhibition Assay (CellTiter-Glo), LNCaP. In kind it is cell-based. The following applies: Homo sapiens, 96 h, hydrochloride salts, 4 days culture. On the procedure: as §1, §2
Data set [4] concerns DLD-1 (colorectal adenocarcinoma). In words: Cytotoxicity/Growth Inhibition Assay (CellTiter-Glo), DLD-1. The following applies: Homo sapiens, DLD-1, 96 h; hydrochloride salts; 4 days culture. Format: cell-based. As to the method:
as §1, §2

For another data set, the system named is MX-1 (breast carcinoma). Kind of data set: Cytotoxicity/Growth Inhibition Assay (CellTiter-Glo), MX-1. In kind it is cell-based. The following applies: Homo sapiens, 72 h; hydrochloride salts; 3 days culture. As to the method: as §1, §2
For data set [5], the system named is MX-1 tumor. In words: MX-1 Xenograft Assay, Intraperitoneal Administration. Format: in vivo, athymic nu/nu mice. The following applies: hydrochloride salts in aqueous 5% dextrose. As to the method: (§3) Female athymic nu/nu mice (Harlan, Indianapolis, Ind., U.S.A. or similar vendor), 6-8 weeks old (approximately 20 g), were implanted in the mammary fat pad of the right fore flank with 20-30 mg pieces of MX-1 tumor harvested from similar nu/nu mice that had previously been implanted with the MX-1 tumor. […] Groups of mice were treated with compounds 2A and 3A at 50 mg/Kg and compounds 1A, 2A, 3A, and 5A at 100 mg/Kg, in all cases as the hydrochloride salts dissolved in aqueous 5% dextrose, by intraperitoneal injection once/day for 5 consecutive days, with vehicle control. Tumor mass, estimated from volume, was measured twice weekly; and tumor growth inhibition was measured when the average tumor mass in the control group first exceeded 2000 mg. All compounds were active in this assay, with tumor growth inhibition compared to vehicle of 70% and 23% for compounds 2A and 3A, respectively, at 50 mg/Kg, and 100%, 100%, 100%, and 91% for compounds 1A, 2A, 3A, and 5A, respectively, at 100 mg/Kg.

Data set [6] relates to MX-1 tumor. In words: MX-1 Xenograft Assay, Oral Administration. In kind it is in vivo, athymic nu/nu mice. The conditions noted are these: hydrochloride salt in water. On the procedure: as §3
A study similar to that described in In vivo Example 1 was performed using oral administration of compounds 2A and 3A. Groups of mice were treated with compound 2A at 100, 150, 200, or 300 mg/Kg, or compound 3A at 150 mg/Kg, in each case as the hydrochloride salts dissolved in water, by gavage once/day for 5 consecutive days, with vehicle control. Both compounds were active in this assay and compound 2A caused dose-dependent tumor inhibition.

The test system of data set [7] is human cancer cell lines DLD-1, LNCaP, MIA PaCa-2, MX-1. In words: Cytotoxicity/Growth Inhibition Assay, all cell lines, comparison with canfosfamide. In kind it is cell-based. The following applies: all assays (DLD-1, LNCaP, MIA PaCa-2, MX-1). As to the method: as §1
Log-phase cells were trypsinized, collected by centrifugation, and resuspended in a small volume of fresh medium, and the density of viable cells was determined following Trypan Blue staining. Cells were diluted in fresh media (3×10^3 cells/mL for DLD-1, MIA PaCa-2, and MX-1, and 6×10^3 cells/mL for LNCaP), and added at 150 μL/well to 96-well plates, and incubated for several hours to allow attachment in the case of adherent cells. […] After incubation for 10 minutes at room temperature, and the plate was read with a luminometer. […]

Data set [8] deals with MX-1 tumor. In words: MX-1 Xenograft Assay, Intravenous Administration. The following applies: hydrochloride salt in aqueous 5% dextrose. Format: in vivo, athymic nu/nu mice. As to the method: as §3
A study similar to that described in In vivo Example 1 was performed using intravenous administration of compound 2A. A group of mice was treated with the compound, as the hydrochloride salt dissolved in aqueous 5% dextrose, at 40 and 80 mg/Kg by tail vein injection once/day for 5 consecutive days, with vehicle control.

Another data set relates to MIA PaCa-2 tumor. Kind of data set: MiaPaCa-2 Xenograft Assay, Intraperitoneal Administration. Format: in vivo, athymic nu/nu mice. The conditions noted are these: 100 mg/Kg intraperitoneal once/day for 7 days; for tumor growth inhibition compared to vehicle: hydrochloride salts in aqueous 5% dextrose. On the procedure:
Male athymic nu/nu mice, 6-8 weeks old (approximately 20 g), were implanted subcutaneously in the right fore flank with 20-30 mg pieces of MIA PaCa-2 tumor harvested from similar nu/nu mice that had previously been implanted with the MIA PaCa-2 tumor. […] A group of mice was treated with compounds 2A, 3A, and 5A, in all cases as the hydrochloride salts dissolved in aqueous 5% dextrose, at 100 mg/Kg by intraperitoneal injection once/day for 7 consecutive days, with vehicle control.

Where [9] appears, read: 100 mg/Kg intraperitoneal once/day for 5 days.
Setting [10] is: 50 mg/Kg intraperitoneal once/day for 5 days.

As to `CN(C)CCS(=O)(=O)CCOP(=O)(N(CCCl)CCCl)N(CCCl)CCCl` [Compound 1A, 2-{[2-(dimethylamino)ethyl]sulfonyl}ethyl N,N,N′,N′-tetrakis(2-chloroethyl)phosphorodiamidate], the “solubility in water (in words)” value is “somewhat more soluble than the citrate salt of compound 2A” in data set [1] (citrate salt) and “highly soluble in water” in data set [1] (hydrochloride salt). Besides, the IC50 in data set [2] worked out at 39 µM; in [3], 130 µM; in data set [4], 11 µM; with MX-1 (breast carcinoma), 43 µM. Also, in the data set on MX-1 tumor [5] (setting [9]), the “tumor growth inhibition compared to vehicle” value is on record as 100%.
On to `CCN(CC)CCS(=O)(=O)CCOP(=O)(N(CCCl)CCCl)N(CCCl)CCCl` [Compound 2A, 2-{[2-(diethylamino)ethyl]sulfonyl}ethyl N,N,N′,N′-tetrakis(2-chloroethyl)phosphorodiamidate], for which, in data set [1] (tartrate salt), the “solubility in water (in words)” value is given as “slightly more soluble than the citrate salt”. Moreover, the solubility in [1] (citrate salt) is approximately 19 mg/mL; in data set [1] (hydrochloride salt), not below 50 mg/mL. For the same molecule, the “inhibition of tumor growth compared to vehicle” value with MX-1 tumor [6] (100 mg/Kg by gavage once/day for 5 days) is given as 92%; in the data set on MX-1 tumor [6] (300 mg/Kg by gavage once/day for 5 days), 100%; with MX-1 tumor [8] (40 mg/Kg tail vein injection once/day for 5 days), 53%; in the data set with MX-1 tumor [8] (80 mg/Kg tail vein injection once/day for 5 days), 99%. Moreover, the IC50 in data set [2] amounted to 16 µM; in data set [3], 75 µM; in data set [4], 7.9 µM; in the data set with MX-1 (breast carcinoma) it was 16 µM. For the same molecule, the “potency relative to canfosfamide” value in [7] is “more potent”. Also, the “tumor growth inhibition compared to vehicle” value in the data set on MX-1 tumor [5] (setting [10]) is listed as 70%; in the data set with MX-1 tumor [5] (setting [9]), 100%; in the data set on MIA PaCa-2 tumor, 89%. For the same molecule, in the data set on MIA PaCa-2 tumor, the body weight effect entry is on record as “some body weight loss”.
As for `CC(C)N(CCS(=O)(=O)CCOP(=O)(N(CCCl)CCCl)N(CCCl)CCCl)C(C)C` [Compound 3A, 2-{[2-(diisopropylamino)ethyl]sulfonyl}ethyl N,N,N′,N′-tetrakis(2-chloroethyl)phosphorodiamidate], the “inhibition of tumor growth compared to vehicle” value in the data set on MX-1 tumor [6] (150 mg/Kg by gavage once/day for 5 days) is reported as 98%. Also, the half-inhibitory concentration (IC50) stood at 6.8 µM in data set [2], 16 µM in data set [3], 5 µM in [4] and 5 µM in the data set with MX-1 (breast carcinoma). Moreover, the “potency relative to canfosfamide” value in [7] is reported as “more potent”. The “tumor growth inhibition compared to vehicle” value was determined as 23% in the data set on MX-1 tumor [5] (setting [10]), 100% in the data set with MX-1 tumor [5] (setting [9]) and 89% with MIA PaCa-2 tumor. Besides, in the data set with MIA PaCa-2 tumor, the body weight effect result is reported as “some body weight loss”.
Take `O=P(OCCS(=O)(=O)CCN1CCCC1)(N(CCCl)CCCl)N(CCCl)CCCl` [Compound 4A, 2-{[2-(pyrrolidin-1-yl)ethyl]sulfonyl}ethyl N,N,N′,N′-tetrakis(2-chloroethyl)phosphorodiamidate]: the IC50 came out at 29 µM in data set [2], 100 µM in data set [3], 8.6 µM in data set [4] and 26 µM with MX-1 (breast carcinoma).
Turning to `O=P(OCCS(=O)(=O)CCN1CCCCC1)(N(CCCl)CCCl)N(CCCl)CCCl` [Compound 5A, 2-{[2-(piperidin-1-yl)ethyl]sulfonyl}ethyl N,N,N′,N′-tetrakis(2-chloroethyl)phosphorodiamidate], the IC50 is 36 µM in data set [2], 140 µM in data set [3], 13 µM in data set [4] and 41 µM in the data set with MX-1 (breast carcinoma). In addition, the figures for the “tumor growth inhibition compared to vehicle” value with MX-1 tumor [5] (setting [9]) and in the data set on MIA PaCa-2 tumor were 91% and 62%, respectively. For the same molecule, the body weight effect entry with MIA PaCa-2 tumor was “some body weight loss”.
